Results published in the NIST ThermoML archive (doi:10.1021/acs.jced.8b00554).

Experiment: xn = mol fraction of the nth substance listed
Conditions: Liquid, Vibrating tube method

CCCCCCCCCC [decane] + CCCO
Conditions | mass density [kg/m3]
313.15 K, 15010 kPa, x2 = 0.4326 | 740.1
313.15 K, 15020 kPa, x2 = 0.8711 | 777.12
313.15 K, 16000 kPa, x2 = 0.4326 | 740.87
313.15 K, 16010 kPa, x2 = 0.1391 | 729.71
313.15 K, 16010 kPa, x2 = 0.6863 | 757.68
313.15 K, 16010 kPa, x2 = 0.8711 | 777.89
313.15 K, 16020 kPa, x2 = 0.1907 | 731.41
313.15 K, 16020 kPa, x2 = 0.3001 | 735.77
313.15 K, 17000 kPa, x2 = 0.6863 | 758.44
313.15 K, 17010 kPa, x2 = 0.1391 | 730.47
313.15 K, 17020 kPa, x2 = 0.1907 | 732.18
313.15 K, 17020 kPa, x2 = 0.3001 | 736.53
313.15 K, 17020 kPa, x2 = 0.4326 | 741.63
313.15 K, 17020 kPa, x2 = 0.8711 | 778.66
313.15 K, 18000 kPa, x2 = 0.1391 | 731.21
313.15 K, 18010 kPa, x2 = 0.3001 | 737.27
313.15 K, 18010 kPa, x2 = 0.4326 | 742.38
313.15 K, 18010 kPa, x2 = 0.6863 | 759.2
313.15 K, 18010 kPa, x2 = 0.8711 | 779.44
313.15 K, 18020 kPa, x2 = 0.1907 | 732.92
313.15 K, 19000 kPa, x2 = 0.1391 | 731.93
313.15 K, 19000 kPa, x2 = 0.1907 | 733.63
313.15 K, 19000 kPa, x2 = 0.3001 | 738.01
313.15 K, 19000 kPa, x2 = 0.6863 | 759.95
313.15 K, 19020 kPa, x2 = 0.4326 | 743.13
313.15 K, 19020 kPa, x2 = 0.8711 | 780.17
313.15 K, 20000 kPa, x2 = 0.3001 | 738.71
313.15 K, 20000 kPa, x2 = 0.4326 | 743.85
313.15 K, 20010 kPa, x2 = 0.6863 | 760.69
313.15 K, 20020 kPa, x2 = 0.1391 | 732.61
313.15 K, 20020 kPa, x2 = 0.1907 | 734.34
313.15 K, 20020 kPa, x2 = 0.8711 | 780.91
323.15 K, 100 kPa, x2 = 0.1391 | 707.51
323.15 K, 100 kPa, x2 = 0.1907 | 709.03
323.15 K, 100 kPa, x2 = 0.3001 | 712.69
323.15 K, 100 kPa, x2 = 0.4326 | 717.73
323.15 K, 100 kPa, x2 = 0.6863 | 734.39
323.15 K, 100 kPa, x2 = 0.8711 | 755.13
323.15 K, 1000 kPa, x2 = 0.1907 | 709.9
323.15 K, 1000 kPa, x2 = 0.6863 | 735.11
323.15 K, 1010 kPa, x2 = 0.1391 | 708.44
323.15 K, 1010 kPa, x2 = 0.3001 | 713.84
323.15 K, 1010 kPa, x2 = 0.4326 | 718.54
323.15 K, 1020 kPa, x2 = 0.8711 | 755.79
323.15 K, 2000 kPa, x2 = 0.4326 | 719.49
323.15 K, 2010 kPa, x2 = 0.1391 | 709.4
323.15 K, 2010 kPa, x2 = 0.1907 | 710.86
323.15 K, 2010 kPa, x2 = 0.3001 | 714.8
323.15 K, 2020 kPa, x2 = 0.6863 | 736.08
323.15 K, 2020 kPa, x2 = 0.8711 | 756.71
323.15 K, 3000 kPa, x2 = 0.8711 | 757.64
323.15 K, 3010 kPa, x2 = 0.1391 | 710.34
323.15 K, 3010 kPa, x2 = 0.1907 | 711.79
323.15 K, 3010 kPa, x2 = 0.4326 | 720.43
323.15 K, 3010 kPa, x2 = 0.6863 | 737.03
323.15 K, 3020 kPa, x2 = 0.3001 | 715.74
323.15 K, 4000 kPa, x2 = 0.3001 | 716.68
323.15 K, 4010 kPa, x2 = 0.4326 | 721.39
323.15 K, 4010 kPa, x2 = 0.6863 | 737.97
323.15 K, 4020 kPa, x2 = 0.1391 | 711.27
323.15 K, 4020 kPa, x2 = 0.1907 | 712.75
323.15 K, 4020 kPa, x2 = 0.8711 | 758.56
323.15 K, 5000 kPa, x2 = 0.1391 | 712.19
323.15 K, 5000 kPa, x2 = 0.3001 | 717.61
323.15 K, 5000 kPa, x2 = 0.4326 | 722.33
323.15 K, 5000 kPa, x2 = 0.8711 | 759.48
323.15 K, 5020 kPa, x2 = 0.1907 | 713.66
323.15 K, 5020 kPa, x2 = 0.6863 | 738.91
323.15 K, 6000 kPa, x2 = 0.1391 | 713.11
323.15 K, 6010 kPa, x2 = 0.1907 | 714.57
323.15 K, 6010 kPa, x2 = 0.3001 | 718.54
323.15 K, 6010 kPa, x2 = 0.4326 | 723.28
323.15 K, 6010 kPa, x2 = 0.6863 | 739.85
323.15 K, 6010 kPa, x2 = 0.8711 | 760.42
323.15 K, 7000 kPa, x2 = 0.4326 | 724.2
323.15 K, 7010 kPa, x2 = 0.1907 | 715.47
323.15 K, 7010 kPa, x2 = 0.3001 | 719.46
323.15 K, 7010 kPa, x2 = 0.8711 | 761.33
323.15 K, 7020 kPa, x2 = 0.1391 | 714.02
323.15 K, 7020 kPa, x2 = 0.6863 | 740.78
323.15 K, 8000 kPa, x2 = 0.1907 | 716.39
323.15 K, 8010 kPa, x2 = 0.1391 | 714.92
323.15 K, 8010 kPa, x2 = 0.4326 | 725.12
323.15 K, 8010 kPa, x2 = 0.8711 | 762.24
323.15 K, 8020 kPa, x2 = 0.3001 | 720.36
323.15 K, 8020 kPa, x2 = 0.6863 | 741.71
323.15 K, 9000 kPa, x2 = 0.1391 | 715.8
323.15 K, 9000 kPa, x2 = 0.1907 | 717.29
323.15 K, 9000 kPa, x2 = 0.4326 | 726.05
323.15 K, 9000 kPa, x2 = 0.6863 | 742.63
323.15 K, 9000 kPa, x2 = 0.8711 | 763.15
323.15 K, 9010 kPa, x2 = 0.3001 | 721.28
323.15 K, 10000 kPa, x2 = 0.1391 | 716.7
323.15 K, 10000 kPa, x2 = 0.1907 | 718.16
323.15 K, 10000 kPa, x2 = 0.3001 | 722.18
